# Values quoted from earlier work, collected in patent US20030118652A1 (priority 2001, published 2003).
# Legend:
# [1] = molecular target: cytochrome P450 isoform CYP2D6 (Homo sapiens, UniProt P10635); settings: (R)- versus (S)-bisoprolol; stated as 'it is believed'
# [2] = (R)- versus (S)-bisoprolol
# [3] = following administration of racemic bisoprolol; (S)- versus (R)-bisoprolol
# cytochrome P450 isoform CYP2D6, sequence (P10635 whole entry, canonical isoform): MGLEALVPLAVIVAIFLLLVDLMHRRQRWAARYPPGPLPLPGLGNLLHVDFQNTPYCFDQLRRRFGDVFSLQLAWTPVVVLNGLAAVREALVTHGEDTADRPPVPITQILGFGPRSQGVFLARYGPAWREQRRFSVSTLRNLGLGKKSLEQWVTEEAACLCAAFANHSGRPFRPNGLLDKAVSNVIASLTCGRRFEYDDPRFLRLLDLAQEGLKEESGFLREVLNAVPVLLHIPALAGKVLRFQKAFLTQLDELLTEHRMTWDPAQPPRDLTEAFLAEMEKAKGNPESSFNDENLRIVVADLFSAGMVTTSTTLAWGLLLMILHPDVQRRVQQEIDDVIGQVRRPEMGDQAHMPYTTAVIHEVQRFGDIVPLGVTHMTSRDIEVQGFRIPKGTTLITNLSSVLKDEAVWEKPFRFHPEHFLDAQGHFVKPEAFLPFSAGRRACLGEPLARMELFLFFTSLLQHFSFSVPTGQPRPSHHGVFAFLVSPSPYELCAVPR
smiles,measurement,setting,value
CC(C)NC[C@@H](O)COc1ccc(COCCOC(C)C)cc1 [(R)-bisoprolol],rate of oxidative metabolism by CYP2D6,[1],greater rate
same,rate of renal clearance,[2],greater
"CC(C)NCC(O)COc1ccc(COCCOC(C)C)cc1 (racemic) [racemic bisoprolol, 1-[4-[[2-(1-methylethoxy)ethoxy]-methyl]phenoxy]-3-[(1-methylethyl)amino]-2-propanol]",side effects on the peripheral circulation,Bailliart et al. 1987,adverse side effects on the peripheral circulation
same,bronchoconstrictor side effects,Dorow et al. 1986,"bronchoconstrictor effects, including wheeziness and breathlessness"
same,effects on carbohydrate metabolism,"Janka et al. 1986, patients with diabetes",effects on carbohydrate metabolism that are deleterious to patients with diabetes
CC(C)NC[C@H](O)COc1ccc(COCCOC(C)C)cc1 [(S)-bisoprolol],elimination half-life,[3],slightly higher
